Source: article PMC11992208, “Structural basis for the prolonged photocycle of sensory rhodopsin II revealed by serial synchrotron crystallography” (Nature Communications, 2025)

Biological target: T1, sensory rhodopsin II (NpSRII) (Natronomonas pharaonis, UniProt P42196)
T1 construct: gene sop2; His-tagged, expressed in E. coli BL21star from pET27a, Ni-NTA and size exclusion; crystallised in LCP
T1 sequence (P42196 1-239): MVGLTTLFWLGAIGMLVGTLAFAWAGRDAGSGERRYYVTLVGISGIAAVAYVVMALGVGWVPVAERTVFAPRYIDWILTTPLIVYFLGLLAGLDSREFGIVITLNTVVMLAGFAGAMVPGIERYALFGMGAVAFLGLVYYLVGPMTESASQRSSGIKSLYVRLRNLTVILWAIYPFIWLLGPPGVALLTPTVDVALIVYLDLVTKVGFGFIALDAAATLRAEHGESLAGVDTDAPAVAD
Assay: serial synchrotron X-ray crystallography
Assay type: binding
Conditions: covalent, room temperature

SMILES | serial synchrotron X-ray crystallography (protonated Schiff base to Lys205, dark resting state, LCP microcrystals) | serial synchrotron X-ray crystallography (Lys205, photoisomerized in situ from all-trans retinal, M-state at partial occupancy, continuous 488 nm illumination)
CC1=C(/C=C/C(C)=C/C=C/C(C)=C/C=O)C(C)(C)CCC1 [all-trans retinal] | the resting and O-state populations were refined with an all-trans retinal | 
CC1=C(/C=C/C(C)=C/C=C/C(C)=C\C=O)C(C)(C)CCC1 [13-cis retinal] |  | the population of the M-state was given a 13-cis retinal
